Three molecules from US11564929B2, “Combination therapy with Notch and PI3K/mTOR inhibitors for use in treating cancer” (Eli Lilly and Company, priority 2016, dated 2023) can be followed below.

This experiment concerns A2780 human ovarian carcinoma. Nature of the experiment: Human A2780 xenograft tumor growth in athymic nude mice. The class given is in vivo. The protocol:
A2780 is a human ovarian cell line (Sigma-Aldrich). The cells are grown in culture media at 37° C. in 5% CO2 with humidity in the atmosphere. Cell culture media for A2780 human ovarian carcinoma is RPMI-1640 (without phenol red) with 2.05 mM L-glutamine, 0.01 mg/ml insulin and 10% fetal bovine serum (EBS) added.
To evaluate in viva efficacy and effect A2780 (2×10^6) cells in a 1:1 Matrigel® mix (0.2 mL volume) are implanted by subcutaneous injection in the hind leg of 6-8 weeks of age athymic nude female mice (Harlan Laboratories). A total of 7 to 10 mice are used for each group. Just before implantation, animals are irradiated ([…]). Mice are fed ad libitum on normal chow. Treatment is initiated with oral administration (gavage) of Compound A or vehicle (1% sodium carboxymethylcellulose (Na-CMC) in 0.25% Tween®-80) or Compound B in 1% hydroxyethyl cellulose (HEC)/0.25% Tween® 80/0.05% Antifoam or their vehicle in 0.2 mL volume when tumor size reached to 150±50 mm^3, in this case after the tumor measurements were taken on study day 9. Compound A was administered at 4 or 8 mg/kg on a Monday, Wednesday and Friday schedule for 4 weeks and Compound B was administered at 15 or 30 mg/kg daily for 28 days. Tumor growth and body weight are monitored over time to evaluate efficacy and signs of toxicity. Bidimensional measurements of tumors are performed twice a week and tumor volumes are calculated based on the following formula: (Tumor Volume)=[(L)×(W2)×(II/6)] where L is mid-axis length and W is mid-axis width. Tumor volume data are transformed to a […] to equalize variance across time and treatment groups. The log volume data are analyzed with a two-way repeated measures analysis of variance by time and treatment using the MIXED™ procedure in SAS™ software (version 8.2). The correlation model for the repeated measures is spatial power. Test Groups are: • 01: Control: 1% HEC/0.25% Tween 80/0.05% Antifoam; 1% CMC/0.25% Tween 80/0.05% Antifoam; • 02: Compound A 8 mg/kg; • 03: Compound B 30 mg/kg; • 04: rapamycin 4 mg/kg; • 05: Compound A 8 mg/kg and Compound B 30 mg/kg; • 06: Compound A 4 mg/kg and Compound B 30 mg/kg; • 07: Compound B 15 mg/kg and Compound A 8 mg/kg; • 08: Compound B 15 mg/kg and Compound A 4 mg/kg; • 09: Compound A 8 mg/kg and rapamycin 4 mg/kg.
Using the repeated measures analysis previously described, a contrast statement is used to test for an interaction effect on study day 36, using the two specific treatments that were combined.

In the case of `C[C@H](NC(=O)CCC(F)(F)F)C(=O)N[C@@H]1C(=O)N(CCO)c2ncccc2-c2ccccc21` [Compound A, 4,4,4-trifluoro-N-[(1S)-2-[[(7S)-5-(2-hydroxyethyl)-6-oxo-7H-pyrido[2,3-d][3]benzazepin-7-yl]amino]-1-methyl-2-oxo-ethyl]butanamide], the “Tumor volume, Geometric Mean” value is, setting by setting: (Group 02: Compound A 8 mg/kg oral Mon/Wed/Fri, study day 7 (before first dose)) 121.62 mm^3; (Group 02: Compound A 8 mg/kg oral Mon/Wed/Fri, study day 9 (before first dose)) 109.98 mm^3; (Group 02: Compound A 8 mg/kg oral Mon/Wed/Fri, study day 12) 131.53 mm^3; (Group 02: Compound A 8 mg/kg oral Mon/Wed/Fri, study day 15) 194.78 mm^3; (Group 02: Compound A 8 mg/kg oral Mon/Wed/Fri, study day 19) 408.55 mm^3; (Group 02: Compound A 8 mg/kg oral Mon/Wed/Fri, study day 22) 639.48 mm^3. The “Tumor volume, Geometric Mean” value is, setting by setting: (Group 02: Compound A 8 mg/kg oral Mon/Wed/Fri, study day 26) 1140.46 mm^3; (Group 02: Compound A 8 mg/kg oral Mon/Wed/Fri, study day 29) 1384.21 mm^3; (Group 02: Compound A 8 mg/kg oral Mon/Wed/Fri, study day 33) 1631.82 mm^3; (Group 02: Compound A 8 mg/kg oral Mon/Wed/Fri, study day 36) 1616.05 mm^3.

Turning to `CO[C@H]1C[C@@H]2CC[C@@H](C)[C@@](O)(O2)C(=O)C(=O)N2CCCC[C@H]2C(=O)O[C@H]([C@H](C)C[C@@H]2CC[C@@H](O)[C@H](OC)C2)CC(=O)[C@H](C)/C=C(\C)[C@@H](O)[C@@H](OC)C(=O)[C@H](C)C[C@H](C)/C=C/C=C/C=C/1C` [rapamycin, reference compound], the “Tumor volume, Geometric Mean” value (Group 04: rapamycin 4 mg/kg, study day 7 (before first dose)) turned out to be 130.45 mm^3; the “Tumor volume, Geometric Mean” value (Group 04: rapamycin 4 mg/kg, study day 9 (before first dose)) is reported as 100.08 mm^3; the “Tumor volume, Geometric Mean” value (Group 04: rapamycin 4 mg/kg, study day 12) was found to be 130.81 mm^3; the “Tumor volume, Geometric Mean” value (Group 04: rapamycin 4 mg/kg, study day 15) came to 215.88 mm^3; the “Tumor volume, Geometric Mean” value (Group 04: rapamycin 4 mg/kg, study day 19) was found to be 428.88 mm^3; the “Tumor volume, Geometric Mean” value (Group 04: rapamycin 4 mg/kg, study day 22) is listed as 786.46 mm^3. The “Tumor volume, Geometric Mean” value runs as follows: (Group 04: rapamycin 4 mg/kg, study day 26) 1291.64 mm^3; (Group 04: rapamycin 4 mg/kg, study day 29) 1664.57 mm^3; (Group 04: rapamycin 4 mg/kg, study day 33) 2136.31 mm^3; (Group 04: rapamycin 4 mg/kg, study day 36) 2461.81 mm^3.

As to `CO[C@@H](C)Cn1c(=O)n(C)c2cnc3ccc(-c4cncc(C(C)(C)O)c4)cc3c21` [Compound B, 8-[5-(1-hydroxy-1-methylethyl)pyridin-3-yl]-1-[(2S)-2-methoxypropyl]-3-methyl-1,3-dihydro-2H-imidazo[4,5-c]quinolin-2-one], the “Tumor volume, Geometric Mean” value (Group 03: Compound B 30 mg/kg oral daily, study day 7 (before first dose)) is 149.36 mm^3; the “Tumor volume, Geometric Mean” value (Group 03: Compound B 30 mg/kg oral daily, study day 9 (before first dose)) came out at 118.70 mm^3; the “Tumor volume, Geometric Mean” value (Group 03: Compound B 30 mg/kg oral daily, study day 12) is 138.06 mm^3; the “Tumor volume, Geometric Mean” value (Group 03: Compound B 30 mg/kg oral daily, study day 15) is on record as 201.95 mm^3; the “Tumor volume, Geometric Mean” value (Group 03: Compound B 30 mg/kg oral daily, study day 19) is on record as 326.33 mm^3; the “Tumor volume, Geometric Mean” value (Group 03: Compound B 30 mg/kg oral daily, study day 22) was 488.21 mm^3. Besides, the “Tumor volume, Geometric Mean” value (Group 03: Compound B 30 mg/kg oral daily, study day 26) turned out to be 776.88 mm^3; the “Tumor volume, Geometric Mean” value (Group 03: Compound B 30 mg/kg oral daily, study day 29) amounted to 1135.14 mm^3; the “Tumor volume, Geometric Mean” value (Group 03: Compound B 30 mg/kg oral daily, study day 33) is given as 1527.41 mm^3; the “Tumor volume, Geometric Mean” value (Group 03: Compound B 30 mg/kg oral daily, study day 36) is 1664.20 mm^3.
